Data from patent US9873883B2, “Glyphosate resistant plants and associated methods” (Dow AgroSciences LLC, priority 2012, dated 2018).

Experiments:
Experiment in all cases: In vitro kinetic assay (inorganic phosphate production, malachite green)
Type in all cases: biochemical
[1] = biological target: Triticum aestivum (wheat) EPSP synthase DGT-7 v5, native (GENBANK EU977181), SEQ ID NO: 60 (Triticum aestivum, UniProt B5M6A1)
From the text: (§1) FIG. 1 depicts a partial sequence alignment of DGT-14 (SEQ ID NO:46), DGT-11 (SEQ ID NO:47), DGT-12 (SEQ ID NO:49), DGT-18 (SEQ ID NO:50), DGT-29 (SEQ ID NO:53), and DGT-30 (SEQ ID NO:52) to other EPSP synthase enzymes, such as; grg-23 (SEQ ID NO:54; derived from U.S. Pat. No. 7,834,249), CP4 (SEQ ID NO:48; GENBANK ACC NO: AEM75108.1) from Agrobacterium tumefaciens, DGT-3 (SEQ ID NO:57; GENBANK ACC NO: P17688) from Brassica napus, DGT-1 (SEQ ID NO:56) from Glycine max, DGT-7 (SEQ ID NO:55; GENBANK ACC NO: EU977181) from Triticum aestivum, and aroA (SEQ ID NO:51; Padgette et al., (1991); Eschenburg et al., (2002); Priestman et al., (2005); Haghani et al., (2008) from Escherichia coli. All six DGT enzymes (DGT-14, DGT-11, DGT-12, DGT-18, DGT-30, and DGT-29) share a conserved alanine at the aroA EPSP synthase enzyme amino acid position 96. The location of this amino acid is indicated by an asterisk, and the amino acid residue is underlined.
(§2) The location of the amino acid residue which was mutated from glycine to alanine is indicated by the first asterisk. The location of the amino acid residue which was mutated from threonine to isoleucine is indicated by the second asterisk. The location of the third amino acid residue which was mutated from proline to serine is indicated by the third asterisk.
(§3) The following Class I enzymes: DGT-1 from Glycine max, DGT-3 from Brassica napus (GENBANK ACC NO: P17688), and DGT-7 from Triticum aestivum (GENBANK ACC NO: EU977181) were used as a comparison. The Class I EPSP synthase enzymes and mutant variants thereof were synthesized and evaluated. A mutation introduced into the plant EPSP synthase enzymes consisted of the Glycine to Alanine mutation made within the EPSP synthase enzyme at a similar location as that of the G96A mutation from the E. coli version of the enzyme. In addition, Threonine to Isoleucine and Proline to Serine mutations were introduced within these Class I EPSP synthase enzymes at analogous positions as that of amino acid 97 (T to I) and amino acid 101 (P to S) in the EPSP synthase of E. coli as described in Funke et al., (2009).
(§4) Additional constructs containing the dgt-1, dgt-3 and dgt-7 were synthesized. These constructs were used for in vitro testing of the dgt-1 v5, dgt-1 v6, dgt-1 v7, dgt-1 v8, dgt-3 v6, dgt-3 v7, dgt-3 v8, dgt-7 v5, dgt-7 v6, dgt-7 v7, and dgt-7 v8 gene sequences were outsourced to GeneArt for synthesis and cloning. The synthesized genes were cloned into the pET28 expression vector. […]

[2] = biological target: Glycine max (soybean) EPSP synthase DGT-1 v5, native, SEQ ID NO: 59 (Glycine max, UniProt I1J7U9)
From the text: as §1, §2, §3, §4

[3] = system: bacterial EPSP synthase DGT-12 (GENBANK ZP_01622155.1) variant DGT-12 v6 (G→A at residue 111), SEQ ID NO:7
From the text: The novel DGT-14, DGT-12, DGT-18, DGT-29 and DGT-30 enzymes were obtained and the glycine to alanine mutation was introduced into the EPSP synthase enzymes at a location analogous to the G96A location described for the E. coli version of the EPSP synthase enzyme. The DGT-14 protein sequence was modified by introducing an alanine to replace the endogenous glycine of GENBANK ACC NO: ZP_01452683 at amino acid residue 101, thereby resulting in SEQ ID NO:1. The DGT-12 protein sequence was modified by introducing an alanine to replace the endogenous glycine of GENBANK ACC NO: ZP_01622155.1 at amino acid residue 111, thereby resulting in SEQ ID NO:7. The DGT-18 protein sequence was modified by introducing an alanine to replace the endogenous glycine of GENBANK ACC NO: NP_928909.1 at amino acid residue 96, thereby resulting in SEQ ID NO:9. The DGT-29 protein sequence was modified by introducing an alanine to replace the endogenous glycine of GENBANK ACC NO: YP_322772.1 at amino acid residue 96, thereby resulting in SEQ ID NO:11. The DGT-30 protein sequence was modified by introducing an alanine to replace the endogenous glycine of GENBANK ACC NO: ZP_02156189.1 at amino acid residue 96, thereby resulting in SEQ ID NO:13.
The synthesized genes were cloned into the pET28 expression vector.
Recombinant DGT proteins were overexpressed in Rosetta2™ (DE3) cells (Novagen, Madison, Wis.) from the constructs described above. A single colony was used to inoculate 50 mL starter cultures of LB containing chloramphenicol (25 μg/mL) and kanamycin (50 μg/mL) which were cultivated overnight at 37° C. The overnight cultures were used to inoculate 1 L of LB containing chloramphenicol (25 μg/mL) and kanamycin (50 μg/mL). The cultures were grown at 37° C. to an O.D.600=0.6 then placed in an ice water bath for 10 minutes. Expression of the target proteins was achieved by addition of IPTG to a final concentration of 500 μM. Induction was allowed to proceed overnight at 20° C. followed by harvesting via centrifugation at 8,000 rpm for 20 minutes. […]

Sequence of Triticum aestivum (wheat) EPSP synthase DGT-7 v5, native (GENBANK EU977181), SEQ ID NO: 60 (B5M6A1 entry or part of it): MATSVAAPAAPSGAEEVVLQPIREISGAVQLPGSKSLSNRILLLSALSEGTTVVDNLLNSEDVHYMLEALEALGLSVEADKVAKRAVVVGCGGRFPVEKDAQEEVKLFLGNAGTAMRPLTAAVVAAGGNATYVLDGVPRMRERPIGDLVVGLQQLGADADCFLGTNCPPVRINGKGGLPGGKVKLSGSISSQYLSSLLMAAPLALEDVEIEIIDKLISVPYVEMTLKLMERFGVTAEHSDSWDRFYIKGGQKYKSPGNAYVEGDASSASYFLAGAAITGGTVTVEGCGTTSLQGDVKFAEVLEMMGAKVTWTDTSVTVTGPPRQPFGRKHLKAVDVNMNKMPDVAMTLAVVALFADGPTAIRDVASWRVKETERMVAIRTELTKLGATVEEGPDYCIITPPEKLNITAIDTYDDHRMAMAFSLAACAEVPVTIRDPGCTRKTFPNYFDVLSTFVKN
Sequence of Glycine max (soybean) EPSP synthase DGT-1 v5, native, SEQ ID NO: 59 (I1J7U9 entry or part of it): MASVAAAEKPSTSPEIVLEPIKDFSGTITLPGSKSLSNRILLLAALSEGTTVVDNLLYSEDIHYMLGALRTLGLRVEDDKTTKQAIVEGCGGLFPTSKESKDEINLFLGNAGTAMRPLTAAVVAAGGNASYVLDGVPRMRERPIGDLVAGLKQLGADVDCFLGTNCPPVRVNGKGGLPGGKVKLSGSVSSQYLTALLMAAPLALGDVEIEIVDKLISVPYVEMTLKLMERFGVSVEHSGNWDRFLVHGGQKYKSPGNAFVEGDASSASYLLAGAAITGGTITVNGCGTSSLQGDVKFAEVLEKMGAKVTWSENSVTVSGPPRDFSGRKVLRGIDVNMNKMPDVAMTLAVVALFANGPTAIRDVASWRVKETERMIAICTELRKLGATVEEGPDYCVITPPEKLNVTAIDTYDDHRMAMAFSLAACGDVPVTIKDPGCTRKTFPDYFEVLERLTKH

Structure (SMILES): C=C(OP(=O)(O)O)C(=O)O [PEP, phosphoenolpyruvate]
- kcat/Km ([1]; PEP, pH 7.5, 1 mM S3P): 215000 M⁻¹ s⁻¹
- kcat/Km ([2]; PEP, pH 7.5, 1 mM S3P): 74100 M⁻¹ s⁻¹
- kcat/Km ([3]; PEP, pH 7.5, 1 mM S3P): 700 M⁻¹ s⁻¹
- Km ([3]; read-out: Km for PEP, pH 7.5, 1 mM S3P): 128 µM

Structure (SMILES): O=C(O)CNCP(=O)(O)O [glyphosate, N-(phosphonomethyl)glycine]
- IC50 [1]: ~20 µM
- IC50 [2]: ~20 µM
- IC50 ([3]; at 1 mM PEP, read-out: IC50 (glyphosate)): 4000 µM
